Laboratory results as given in PMC10694292, “Increased sinusoidal export of drug glucuronides is a compensative mechanism in liver cirrhosis of mice” (Frontiers in Pharmacology, 2023).
Converted amounts (≈) assume the structure as drawn. Read-outs that look alike come from different tables or passages of the source.

Assays:
[1] = cited from earlier work
[2] = Drug cocktail i.v. in CCl4-cirrhotic and control mice: plasma concentrations and AUC; settings: for Measured plasma concentrations in cirrhotic mice vs PBPK-predicted concentrations: 15-120 min after cocktail, prediction with CYP activity at 11%
[3] = humans, 2017, cited from earlier work; for Recovered from urine: after a single oral dose, ref Knauf and Mutschler, 1998, FDA
[4] = Drug cocktail i.v. in mice: 2 h bile, fraction of dose excreted; settings: mice, 2 h after drug administration
[5] = Drug cocktail i.v. in mice: 24 h urine, fraction of dose excreted; settings: for Mean fraction of dose excreted to urine: mice, after drug cocktail administration; for Fraction of dose in urine (24 h), cirrhotic vs control mice: i.v. drug cocktail
[6] = optimized, human; ref Krauss et al., 2017; cited from earlier work
[7] = human, cited from earlier work
[8] = Chronic CCl4 treatment (12 months): blood chemistry and bile acids; format: in vivo, mice
Method: Male C57 Black 6/N 8–10-week-old mice were used (Janvier Labs, France). The mice were housed under standard environmental conditions with ad libitum feeding on a normal rodent diet (Ssniff, Soest, Germany) and with free access to water. To induce chronic liver damage, the mice were treated repeatedly with carbon tetrachloride (CCl4, 1 G/kg intraperitoneal) twice per week for 12 months ([Ghallab et al., 2019b]; [Holland et al., 2022]). The control mice received the vehicle only (olive oil, application volume 4 mL/kg intraperitoneal). On day 6, after the last CCl4/oil injection, blood as well as liver tissue samples were collected, as previously described ([Ghallab et al., 2016]). All experiments were approved by the local animal protection authorities (application number: 84-02.04.2017. A177).
ALT, AST, and ALP activities as well as albumin concentrations of plasma samples were measured with a 1:1 dilution in PBS using a Piccolo Xpress® chemistry analyzer and General Chemistry 13 panels (Hitado, Möhnesee, Germany).
Plasma concentrations of bile acids were analyzed using negative electrospray (ESI) liquid chromatography-tandem mass spectrometry (LC-MS/MS), as previously described ([Ghallab et al., 2022]).

[9] = optimized (mouse); ref Schenk et al., 2017; cited from earlier work
[10] = mouse, in vivo
[11] = experimental, rat, ref Lee et al., 2005, cited from earlier work
[12] = cited from earlier work; remark: listed apart in the source
[13] = DrugBank, predicted AlogPS, ref Wishart et al., 2017
[14] = DrugBank, predicted ChemAxon, ref Wishart et al., 2017
[15] = optimized (mouse), ref Schenk et al., 2017
[16] = predicted ACD, ref Nguyen et al., 2016
[17] = predicted, ref Wishart et al., 2017

## CC(C)NC(=O)NS(=O)(=O)c1cnccc1Nc1cccc(CO)c1 [OH-torsemide, hydroxy torsemide]
[1]; [13]
  Lipophilicity: 0.86
  Solubility: 89.8 µg/mL (≈ 246 µM)
[1]; [14]
  Lipophilicity: 0.49
[1]; [15]
  Lipophilicity: 0.75
[1]; optimized, human, ref Krauss et al., 2017
  Lipophilicity: 2.139
[2]; i.v. drug cocktail
  Phase I metabolite in blood (formation), cirrhotic vs control, experimental data: decreased formation
[3]
  Recovered from urine: about 10%
[4]
  Mean fraction of dose excreted to bile: 0.8%
[5]
  Mean fraction of dose excreted to urine: 11%
[6]
  Fraction unbound: 0.00191

## O=C(O)[C@H]1O[C@@H](OCc2ncc3n2-c2ccc(Cl)cc2C(c2ccccc2F)=NC3)[C@H](O)[C@@H](O)[C@@H]1O [OH-MDZ-G, 1-hydroxymidazolam glucuronide]
[1]; ref Vossen et al., 2007
  Lipophilicity: 1.4
[2]
  Measured plasma concentrations in cirrhotic mice vs PBPK-predicted concentrations: much higher
[4]
  Mean fraction of dose excreted to bile: 1.2%
[5]
  Fraction of dose in urine (24 h), cirrhotic vs control mice: higher

## COc1ccc2c3c1O[C@H]1[C@@H](O[C@@H]4O[C@H](C(=O)O)[C@@H](O)[C@H](O)[C@H]4O)C=C[C@H]4[C@@H](C2)N(C)CC[C@@]341 [C6G, codeine-6-glucuronide]
[1]; [13]
  Lipophilicity: -0.23
  Solubility: 4310 µg/mL (≈ 9060 µM)
[1]; [14]
  Lipophilicity: -2.8
[2]
  Measured plasma concentrations in cirrhotic mice vs PBPK-predicted concentrations: much higher
[5]
  Fraction of dose in urine (24 h), cirrhotic vs control mice: higher
  Mean fraction of dose excreted to urine: 1%
[7]; experimental, ref Vree and Verwey-van Wissen
  Fraction unbound: 0.44

## ClC(Cl)(Cl)Cl [CCl4, carbon tetrachloride]
[8]; CCl4 1 g/kg i.p. twice per week, 12 months, vs oil
  Plasma ALT: increased
[8]; CCl4 12 months vs oil
  ALP: no significant changes
  Albumin: no significant changes
  Plasma AST: increased
  Serum bile acid levels: increased

## OCc1ncc2n1-c1ccc(Cl)cc1C(c1ccccc1F)=NC2 [OH-MDZ, 1-hydroxymidazolam]
[9]
  Fraction unbound: 0.01
[1]; [13]
  Lipophilicity: 3.09
  Solubility: 25.4 µg/mL (≈ 74.3 µM)
[1]; [14]
  Lipophilicity: 2.48
[1]; [16]
  Lipophilicity: 2.5
  pKa, ampholyte, first value: 3.63
  pKa, ampholyte, second value: 13.6
[1]; [17]
  pKa, ampholyte, first value: 4.99
  pKa, ampholyte, second value: 13.95
[1]; ref Vossen et al., 2007
  Lipophilicity: 2.6
[5]
  Mean fraction of dose excreted to urine: below 1%
[7]; measured, ref Nguyen et al., 2016
  Fraction unbound: 0.15

## Cc1cccc(Nc2ccncc2S(=O)(=O)NC(=O)NC(C)C)c1 [Torsemide, torsemide]
[1]; DrugBank, experimental, ref Wishart et al., 2017
  Lipophilicity: 3.356
[1]; [13]
  Lipophilicity: 1.76
  Solubility: 55.96 µg/mL (≈ 161 µM)
[1]; [14]
  Lipophilicity: 1.86
[1]; mouse, optimized, ref Thiel et al., 2015
  Lipophilicity: 2.023
[1]; [15]
  Lipophilicity: 2.3
[1]; ref FDA, 2017, Wishart et al.
  pKa: 7.1
[1]; ref Knauf and Mutschler, 1998
  Lipophilicity: 0.57
  pKa: 7
[3]
  Recovered from urine: about 20%
[3]; ref FDA
  Share excreted to urine: about 20%
  Share of drug clearance by hepatic metabolism: about 80%
[10]
  Mean fraction of dose excreted to urine: 4%
[10]; iv
  Fraction of dose in urine (24 h), cirrhotic vs control mice: increased significantly
[7]; experimental, ref Knauf and Mutschler, 1998, Wishart et al., 2017
  Fraction unbound: < 0.01
[6]
  Fraction unbound: 0.00125
[11]
  Fraction unbound: 0.061
[11]; listed as torsemide
  Fraction unbound: 0.06
[12]; rat, after 8h cannulation, ref Lee et al., 2005
  Dose found in bile: about 2%
[12]; ref Lee 2005
  Tissue-to-plasma ratio, liver: 0.336
  Tissue-to-plasma ratio, muscle: 0.069
